From patent publication US20250243267A1, “COMBINATION OF A GREMLIN-1 ANTAGONIST WITH A CYTIDINE ANALOGUE OR DEOXYCYTIDINE ANALOGUE” (UCB BIOPHARMA SRL, priority 2022, published 2025)
Values joined by “and” are separate entries in the source; they are usually repeats but may differ in a detail not shown here. Equal values may be shown once.

Tested on: LSL-KrasG12D/+; LSL-Trp53R172H/+; Pdx1-Cre (KPC) mouse model of pancreatic cancer
Test: Survival of KPC mice with pancreatic cancer from start of treatment (Kaplan-Meier, Log-Rank)
Format: in vivo
Source text: • Test antibody and drug Anti-gremlin-1 antibody-Ab7326 mlgG1-APP.4405.IgG.mFc-Lot number-PB 4682 • Vehicle-Phosphate Buffered Saline pH 7.4 (provided by the Beatson Institute) • Gemcitabine-(provided by the Beatson Institute, purchased from LC Labs, Woburn, MA, USA) in Phosphate Buffered Saline pH 7.4. • Genetically Modified Mice • LSL-Kras^G12D/+; Trp53^R172H/+; Pdx1-Cre (KPC) mice have been described previously (Hingorani et al., 2005). Mice were generated by crossing mice bearing Pdx1-Cre, and conditional LSL-KrasG12D or LSL-Trp53R172H alleles (strains 01XJ6 and 01XL9, Mouse Models of Human Cancer Consortium [MMHCC], NCI-Frederick, Frederick, MD, USA). Mice on a mixed background were bred in-house at the CRUK Beatson Institute and maintained in conventional caging with environmental enrichment, access to standard chow and water ad libitum. Genotyping was performed by Transnetyx (Cordoba, TN, USA). Mice of both sexes were recruited onto study. All animal experiments were performed under a UK Home Office licence and approved by the University of Glasgow Animal Welfare and Ethical Review Board.
Mice were monitored 3 times weekly until a diagnosis of pancreatic cancer was made by abdominal palpation and confirmed by ultrasound imaging. […] Mice were monitored daily and sacrificed when reaching ethical endpoint (symptoms include abdominal distension, cachexia, intermittent hunching or reduced mobility, piloerection, mild diarrhoea, anaemia). […]
Next, the efficacy of gremlin-1 inhibition as a potential therapeutic approach for pancreatic cancer was tested in the KPC model. […] A cohort of KPC mice was established and mice were monitored until they developed pancreatic cancer detectable by palpation.
Mice were monitored at least weekly by palpation until pancreatic tumours were detectable. […] Mice remained on study and were closely monitored until ethical endpoint was reached, at which time they were sacrificed as per institutional guidelines.

Nc1ccn([C@@H]2O[C@H](CO)[C@@H](O)C2(F)F)c(=O)n1 [Gemcitabine, 2′-deoxy-2′,2′-difluorocytidine, reference compound]
survival compared with vehicle controls (KPC mice, result in words): negligible benefit | Median (days) survival (KPC mice, survival from start of treatment, dosing twice weekly (Ab7326 mlgG1 30 mg/kg s.c.; gemcitabine 100 mg/kg i.p.)): 24 days | Days on Rx (individual mice) (one value per KPC mouse, * denotes smaller than average tumour at start of treatment): 3 days and 34 days and 24 days and 44 days and 17 days
